Drawing on patent US20220324865A1 (Bayer Aktiengesellschaft, priority 2018, published 2022), this text covers IC50 for 36 compounds.

pIC50: −log10 of the molar value.

This experiment has as its target T1, human EP3 receptor (Homo sapiens, UniProt P43115).
T1 construct: expressed in transfected cells; host or cells: CHO K1 (Chinese Hamster Ovary), stably co-transfected with Galpha16 and mitochondrial clytin
T1 sequence (P43115 1-390): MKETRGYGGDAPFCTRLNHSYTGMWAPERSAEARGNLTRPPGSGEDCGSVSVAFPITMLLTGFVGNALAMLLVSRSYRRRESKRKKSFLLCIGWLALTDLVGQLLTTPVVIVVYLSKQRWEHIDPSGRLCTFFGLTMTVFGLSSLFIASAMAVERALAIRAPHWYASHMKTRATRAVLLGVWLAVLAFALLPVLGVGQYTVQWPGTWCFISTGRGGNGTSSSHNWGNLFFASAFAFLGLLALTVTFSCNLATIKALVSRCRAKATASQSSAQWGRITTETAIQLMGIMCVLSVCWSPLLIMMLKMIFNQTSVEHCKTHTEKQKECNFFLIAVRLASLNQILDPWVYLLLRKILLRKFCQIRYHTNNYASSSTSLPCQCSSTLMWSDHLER
The experiment can be described thus: Cellular in vitro assay for determining EP3 receptor activity (human EP3 cell line, sulprostone-stimulated calcium luminescence). Conditions: CHO cells expressing human EP3 and mitochondrial Clytin; antagonist mode, sulprostone at EC50; read-out: EP3 CHO mtCLY ANTAG IC50. It counts as cell-based. An outline of the steps: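 Antagonist activity was measured as inhibition of the luminescent calcium signal elicited by EC50 sulprostone, following 10 min compound pretreatment. The cell line was recombinant CHO K1 co-expressing human EP3, Gα16 and the photoprotein Clytin, reconstituted with coelenterazine.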
As for `CN(C)CC(NC(=O)c1nn2cc(-c3ccc4ccccc4c3)[nH]c(=O)c2c1C(F)(F)F)c1ccc(F)cc1` (racemic) [6-506], the pIC50 (as a rule, the negative decadic logarithm of the IC50, by convention in mol/L) was 8.26.

For the compound `Cc1cccc2ncc(-c3cn4nc(C(=O)NC5CCOC5)c(C(C)C)c4c(=O)[nH]3)cc12` (stereo not drawn) [Example 4-21, 3-Isopropyl-6-(5-methyl-3-quinolyl)-4-oxo-N-(tetrahydrofuran-3-yl)-5H-pyrazolo[1,5-a]pyrazine-2-carboxamide], the pIC50 was 8.71.

Regarding `O=C(NC(c1ccc(F)cc1)C1(O)CC1)c1nn2cc(-c3ccc(Cl)c(Cl)c3)[nH]c(=O)c2c1C1CC1` (racemic) [6-422], the pIC50 was 9.15.

Turning to `Cc1ccc([C@@H](C)NC(=O)c2nn3cc(-c4cnc5cccc(C)c5c4)[nH]c(=O)c3c2C(C)C)cc1` [Example 4-55, N-[(1R)-1-(4-Methylphenyl)ethyl]-6-(5-methylquinolin-3-yl)-4-oxo-3-(propan-2-yl)-4,5-dihydropyrazolo[1,5-a]pyrazine-2-carboxamide], the pIC50 was 8.56.

On to `CC(NC(=O)c1cc2c(=O)[nH]c(-c3ccc4ccccc4c3)cn2n1)c1ccc2c(c1)OCCO2` (stereo not drawn) [Example 2-35, N-[1-(2,3-Dihydro-1,4-benzodioxin-6-yl)ethyl]-6-(2-naphthyl)-4-oxo-4,5-dihydropyrazolo[1,5-a]pyrazine-2-carboxamide], for which the pIC50 is 8.28.

For the compound `Cc1cc(-c2cn3nc(C(=O)N[C@H](CCO)c4ccc(F)cc4)cc3c(=O)[nH]2)ccc1C(F)(F)F` [Example 1-121, N-[(1R)-1-(4-Fluorophenyl)-3-hydroxpropyl]-6-[3-methyl-4-(trifluoromethyl)phenyl]-4-oxo-4,5-dihydropyrazolo[1,5-a]pyrazine-2-carboxamide], the negative-log IC50 (pIC50) was 8.38.

Consider `Cc1cc(-c2cn3nc(C(=O)NC(c4ccc(F)cc4)C(C)(C)O)c(C4CC4)c3c(=O)[nH]2)ccc1C(F)(F)F` (racemic) [6-133], for which the pIC50 is 8.30.

As to `O=C(NC(CO)c1cc(Cl)cc(Cl)c1)c1cc2c(=O)[nH]c(-c3ccc4ccccc4c3)cn2n1` (stereo not drawn) [Example 2-26, N-[1-(3,5-Dichlorophenyl)-2-hydroxyethyl]-6-(2-naphthyl)-4-oxo-4,5-dihydropyrazolo[1,5-a]pyrazine-2-carboxamide], the pIC50 was 8.58.

With `Cc1ccc(-c2cn3nc(C(=O)N[C@H](C)c4ccc(F)cc4)c(C4CC4)c3c(=O)[nH]2)cc1C` [Example 1-84, 3-Cyclopropyl-6-(3,4-dimethylphenyl)-N-[(1R)-1-(4-fluorophenyl)ethyl]-4-oxo-4,5-dihydropyrazolo[1,5-a]pyrazine-2-carboxamide], the pIC50 is 8.92.

On to `O=C(NCCN(CC(F)F)C1CC1)c1nn2cc(-c3ccc4ccccc4c3)[nH]c(=O)c2c1C(F)(F)F` [6-527], for which the negative-log IC50 (pIC50) is 8.47.

As for `Cc1cccc2ncc(-c3cn4nc(C(=O)NC(C)c5ccccc5OC(F)F)c(C(C)C)c4c(=O)[nH]3)cc12` (stereo not drawn) [Example 4-46, N-{1-[2-(Difluoromethoxy)phenyl]ethyl}-3-isopropyl-6-(5-methylquinolin-3-yl)-4-oxo-4,5-dihydropyrazolo[1,5-a]pyrazine-2-carboxamide], the pIC50 is 8.98.

Regarding `Cc1c(C(=O)NCc2ccnn2C)nn2c(C)c(-c3ccc4ccccc4c3)[nH]c(=O)c12` [Example 3-11, 3,7-Dimethyl-N-[(1-methyl-1H-pyrazol-5-yl)methyl]-6-(naphthalen-2-yl)-4-oxo-4,5-dihydropyrazolo[1,5-a]pyrazine-2-carboxamide], the pIC50 was 8.69.

As to `CCCNC(=O)c1cc2c(=O)[nH]c(-c3ccc4cccc(F)c4c3)cn2n1` [6-40], the pIC50 was 8.12.

As for `Cc1ccc(-c2cn3nc(C(=O)NC(CN(C)C)c4ccc(F)cc4)c(C4CC4)c3c(=O)[nH]2)cc1C` (single isomer, unassigned) [6-445], the pIC50 was 8.15.

As to `Cc1ccc(-c2cn3nc(C(=O)NCC(C)(N)C(F)(F)F)c(C(F)(F)F)c3c(=O)[nH]2)cc1Cl` (single isomer, unassigned) [6-171], the pIC50 was 8.64.

Take `Cc1c(C(=O)N[C@@H](c2ccc(F)cc2)C(C)(C)O)nn2c(C)c(-c3ccc4ccccc4c3)[nH]c(=O)c12` [6-604]: the pIC50 was 8.73.

With `Cc1ccc(-c2cn3nc(C(=O)NC(CNC(=O)OC(C)(C)C)c4ccc(F)cc4)cc3c(=O)[nH]2)cc1C` (stereo not drawn) [6-42], the pIC50 is 8.31.

With `Cc1ccc(-c2cn3nc(C(=O)NCC(O)C(F)(F)F)c(C4CC4)c3c(=O)[nH]2)cc1C(F)(F)F` (single isomer, unassigned) [6-245], the pIC50 was 8.87.

As for `Cc1cccc2ncc(-c3cn4nc(C(=O)NCCn5ccc(C6CC6)n5)c(C(C)C)c4c(=O)[nH]3)cc12` [Example 4-40, N-[2-(3-Cyclopropyl-1H-pyrazol-1-yl)ethyl]-6-(5-methylquinolin-3-yl)-4-oxo-3-(propan-2-yl)-4,5-dihydropyrazolo[1,5-a]pyrazine-2-carboxamide], the pIC50 is 9.07.

On to `CC[C@@H](C)NC(=O)c1cc2c(=O)[nH]c(-c3ccc(C)c(C4CC4)c3)cn2n1` [6-613], for which the pIC50 is 8.44.

Turning to `COc1ccc(C(C)NC(=O)c2nn3c(C)c(-c4ccc5ccccc5c4)[nH]c(=O)c3c2C)cc1` (stereo not drawn) [Example 3-57, N-[1-(4-Methoxyphenyl)ethyl]-3,7-dimethyl-6-(2-naphthyl)-4-oxo-5H-pyrazolo[1,5-a]pyrazine-2-carboxamide], the negative logarithm of the IC50 (pIC50) is 8.53.

For the compound `Cc1cc(-c2cn3nc(C(=O)NC(CO)C(F)(F)F)c(C4CC4)c3c(=O)[nH]2)ccc1Cl` (single isomer, unassigned) [6-308], the pIC50 was 8.59.

As to `Cc1ccc(-c2cn3nc(C(=O)NCC(O)C(F)(F)F)c(C4CC4)c3c(=O)[nH]2)cc1F` (single isomer, unassigned; enantiomer2) [Example 1-161, 3-Cyclopropyl-6-(3-fluoro-4-methylphenyl)-4-oxo-N-(3,3,3-trifluoro-2-hydroxpropyl)-4,5-dihydropyrazolo[1,5-a]pyrazine-2-carboxamide (enantiomer2)], the pIC50 was 8.24.

As to `Cc1ccc(-c2cn3nc(C(=O)N[C@H](C)c4ccc(C(F)(F)F)cc4)cc3c(=O)[nH]2)cc1C` [Example 1-15, 6-(3,4-Dimethylphenyl)-4-oxo-N-{(1R)-1-[4-(trifluoromethyl)phenyl]ethyl}-4,5-dihydropyrazolo-[1,5-a]pyrazine-2-carboxamide], the pIC50 is 8.77.

As for `COc1cccc(C(CCO)NC(=O)c2nn3cc(-c4cnc5cccc(C)c5c4)[nH]c(=O)c3c2C(C)C)c1` (stereo not drawn) [Example 4-45, N-[3-Hydroxy-1-(3-methoxyphenyl)propyl]-3-isopropyl-6-(5-methyl-3-quinolyl)-4-oxo-5H-pyrazolo[1,5-a]pyrazine-2-carboxamide], the pIC50 is 9.21.

On to `Cc1cccc2ncc(-c3cn4nc(C(=O)NC(C)c5ccc(Cl)c(Cl)c5)c(C(C)C)c4c(=O)[nH]3)cc12` (stereo not drawn) [Example 4-52, N-[1-(3,4-Dichlorophenyl)ethyl]-3-isopropyl-6-(5-methyl-3-quinolyl)-4-oxo-5H-pyrazolo[1,5-a]pyrazine-2-carboxamide], for which the pIC50 was 8.39.

As to `COc1ccc(C2(NC(=O)c3cc4c(=O)[nH]c(-c5ccc6c(c5)OCCO6)cn4n3)CN(C(=O)OC(C)(C)C)C2)cc1` [6-58], the pIC50 was 8.64.

Take `Cc1c(C(=O)NC2(c3ccccc3)CC2)nn2c(C)c(-c3ccc4ccccc4c3)[nH]c(=O)c12` [Example 3-25, 3,7-Dimethyl-6-(naphthalen-2-yl)-4-oxo-N-(1-phenylcyclopropyl)-4,5-dihydropyrazolo[1,5-a]pyrazine-2-carboxamide]: the pIC50 is 8.62.

For the compound `Cc1ccc(-c2cn3nc(C(=O)NC(C)c4cnc(OCC(F)(F)F)cn4)cc3c(=O)[nH]2)cc1C` (stereo not drawn) [6-2], the pIC50 is 8.41.

For the compound `O=C(NC(c1ccc(F)cc1)C1(O)CC1)c1nn2cc(-c3ccc(Cl)c(Cl)c3)[nH]c(=O)c2c1C1CC1` (single isomer, unassigned) [6-423], the negative logarithm of the IC50 (pIC50) is 9.21.

With `Cc1cc(-c2cn3nc(C(=O)NC(C)C4CCC4)c(C(F)(F)F)c3c(=O)[nH]2)ccc1Cl` (racemic) [6-222], the pIC50 is 8.95.

Regarding `Cc1ncc(-c2cn3nc(C(=O)N[C@@H](c4ccc(F)cc4)C(C)(C)O)c(C4CC4)c3c(=O)[nH]2)cc1Cl` [6-579], the pIC50 was 9.07.

As to `Cc1ccc([C@@H](C)NC(=O)c2nn3c(C)c(-c4ccc5ccccc5c4)[nH]c(=O)c3c2C)cc1` [Example 3-19, 3,7-Dimethyl-N-[(7R)-1-(4-methylphenyl)ethyl]-6-(naphthalen-2-yl)-4-oxo-4,5-dihydropyrazolo[1,5-a]pyrazine-2-carboxamide], the negative logarithm of the IC50 (pIC50) was 8.81.

On to `CC(C)c1c(C(=O)N[C@H](C)c2ccc(F)cc2)nn2cc(-c3ccc4ccccc4c3)[nH]c(=O)c12` [Example 1-8, N-[(1R)-1-(4-Fluorophenyl)ethyl]-6-(naphthalen-2-yl)-4-oxo-3-(propan-2-yl)-4,5-dihydropyrazolo-[1,5-a]pyrazine-2-carboxamide], for which the pIC50 is 8.87.

As for `Cc1c(C(=O)NC2Cc3ccccc3C2)nn2c(C)c(-c3ccc4ccccc4c3)[nH]c(=O)c12` [Example 3-13, N-(2,3-Dihydro-1H-inden-2-yl)-3,7-dimethyl-6-(naphthalen-2-yl)-4-oxo-4,5-dihydropyrazolo[1,5-a]pyrazine-2-carboxamide], the pIC50 was 8.15.

For `[N-]=[N+]=NC[C@H](NC(=O)c1cc2c(=O)[nH]c(-c3ccc4ccccc4c3)cn2n1)c1ccccc1` [6-59], the pIC50 was 8.38.
